#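 Step 1: Grow cells in 96-well plates. Step 2: Expose to compound for 48 hours at 5 concentrations. Step 3: Interpolate endpoints linearly; if unreached, use highest concentration. GI50 marks 50% less growth.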 Active and inactive are the calls of the source. Rule as the data show it: active = GI50 up to about 1.1 µM and inactive = higher.
# Tests used:
# Assay in all cases: NCI anticancer screen, dose series, 48 h
# SK-OV-3 = test system: SK-OV-3
# SK-MEL-28 = test system: SK-MEL-28
# EKVX = test system: EKVX
# SF-539 = test system: SF-539
# HOP-92 = test system: HOP-92
# SNB-19 = test system: SNB-19
# LOX IMVI = test system: LOX IMVI
# U-251 = test system: U-251
# MDA-MB-435 = test system: MDA-MB-435
# NCI/ADR-RES = test system: NCI/ADR-RES
# ACHN = test system: ACHN
# MDA-N = test system: MDA-N
# OVCAR-8 = test system: OVCAR-8
# HCT-116 = test system: HCT-116
# NCI-H460 = test system: NCI-H460
# 786-0 = test system: 786-0
# HOP-62 = test system: HOP-62
# CAKI-1 = test system: CAKI-1
# A549 = test system: A549
# COLO 205 = test system: COLO 205
# CCRF-CEM = test system: CCRF-CEM
# UACC-257 = test system: UACC-257
# HT-29 = test system: HT-29
# OVCAR-4 = test system: OVCAR-4
# SK-MEL-5 = test system: SK-MEL-5
# HCT-15 = test system: HCT-15
# SF-268 = test system: SF-268
# NCI-H522 = test system: NCI-H522
# SK-MEL-2 = test system: SK-MEL-2
# PC-3 = test system: PC-3
# SR = test system: SR
# Malme-3M = test system: Malme-3M
# MDA-MB-231 = test system: MDA-MB-231
# DU-145 = test system: DU-145
# UACC-62 = test system: UACC-62
# TK-10 = test system: TK-10
# IGROV-1 = test system: IGROV-1
# Hs-578T = test system: Hs-578T
# RXF 393 = test system: RXF 393
# MOLT-4 = test system: MOLT-4
# MCF7 = test system: MCF7
# A498 = test system: A498
# M14 = test system: M14
# BT-549 = test system: BT-549
# K562 = test system: K562
# SN12C = test system: SN12C
# SNB-75 = test system: SNB-75
# HL-60 = test system: HL-60
# OVCAR-3 = test system: OVCAR-3
# OVCAR-5 = test system: OVCAR-5
# HCC 2998 = test system: HCC 2998
# T47D = test system: T47D
# KM12 = test system: KM12
# SF-295 = test system: SF-295
# NCI-H226 = test system: NCI-H226
# RPMI-8226 = test system: RPMI-8226
# SW-620 = test system: SW-620
# NCI-H23 = test system: NCI-H23
compound,measurement,setting,value
OC(CC(O)(C(F)(F)Cl)C(F)(F)Cl)c1ccccc1 (stereo not drawn),GI50,SK-OV-3,> 10 µM (inactive)
same,GI50,SK-MEL-28,> 10 µM (inactive)
same,GI50,EKVX,> 10 µM (inactive)
same,GI50,SF-539,> 10 µM (inactive)
same,GI50,HOP-92,> 10 µM (inactive)
same,GI50,SNB-19,> 10 µM (inactive)
same,GI50,LOX IMVI,> 10 µM (inactive)
same,GI50,U-251,> 10 µM (inactive)
same,GI50,MDA-MB-435,< 0.001 µM (active)
same,GI50,NCI/ADR-RES,> 10 µM (inactive)
same,GI50,ACHN,> 10 µM (inactive)
same,GI50,MDA-N,> 10 µM (inactive)
same,GI50,OVCAR-8,> 10 µM (inactive)
same,GI50,HCT-116,> 10 µM (inactive)
same,GI50,NCI-H460,> 10 µM (inactive)
same,GI50,786-0,< 0.001 µM (active)
same,GI50,HOP-62,> 10 µM (inactive)
same,GI50,CAKI-1,> 10 µM (inactive)
same,GI50,A549,> 10 µM (inactive)
same,GI50,COLO 205,> 10 µM (inactive)
same,GI50,CCRF-CEM,> 10 µM (inactive)
same,GI50,UACC-257,> 10 µM (inactive)
same,GI50,HT-29,> 10 µM (inactive)
same,GI50,OVCAR-4,> 10 µM (inactive)
same,GI50,SK-MEL-5,0.00809 µM (active)
same,GI50,HCT-15,> 10 µM
same,GI50,SF-268,> 10 µM (inactive)
same,GI50,NCI-H522,> 10 µM (inactive)
same,GI50,SK-MEL-2,> 10 µM (inactive)
same,GI50,PC-3,> 10 µM (inactive)
same,GI50,SR,> 10 µM (inactive)
same,GI50,Malme-3M,> 10 µM (inactive)
same,GI50,MDA-MB-231,> 10 µM (inactive)
same,GI50,DU-145,> 10 µM (inactive)
same,GI50,UACC-62,> 10 µM (inactive)
same,GI50,TK-10,> 10 µM (inactive)
same,GI50,IGROV-1,0.0258 µM (active)
same,GI50,Hs-578T,> 10 µM (inactive)
same,GI50,RXF 393,> 10 µM (inactive)
same,GI50,MOLT-4,> 10 µM (inactive)
same,GI50,MCF7,> 10 µM (inactive)
same,GI50,A498,0.0107 µM (active)
same,GI50,M14,< 0.001 µM (active)
same,GI50,BT-549,> 10 µM (inactive)
same,GI50,K562,> 10 µM (inactive)
same,GI50,SN12C,> 10 µM (inactive)
same,GI50,SNB-75,> 10 µM (inactive)
same,GI50,HL-60,> 10 µM (inactive)
same,GI50,OVCAR-3,> 10 µM (inactive)
same,GI50,OVCAR-5,> 10 µM (inactive)
same,GI50,HCC 2998,> 10 µM (inactive)
same,GI50,T47D,> 10 µM (inactive)
same,GI50,KM12,> 10 µM (inactive)
same,GI50,SF-295,> 10 µM (inactive)
same,GI50,NCI-H226,> 10 µM (inactive)
same,GI50,RPMI-8226,> 10 µM (inactive)
same,GI50,SW-620,> 10 µM (inactive)
same,GI50,NCI-H23,> 10 µM (inactive)

# Reference: ChEMBL document CHEMBL1201862, “PubChem BioAssay data set” (2004)
